# Laboratory results as given in the NIST ThermoML archive (doi:10.1021/je9003806).
# ± gives the expanded uncertainty stated by the source.
# Conditions: 101.33 kPa, Liquid
structure (smiles),measurement,setting,value
"CCOC(=O)CC(=O)OCC [diethyl 1,3-propanedioate]",mass density,278.15 K,1071.04 ± 0.12 kg/m3
same,mass density,288.14 K,1060.33 ± 0.11 kg/m3
same,mass density,298.15 K,1049.6 ± 0.11 kg/m3
same,mass density,313.15 K,1033.5 ± 0.093 kg/m3
same,mass density,328.15 K,1017.34 ± 0.081 kg/m3
same,mass density,338.15 K,1006.5 ± 0.073 kg/m3
same,mass density,348.15 K,995.631 ± 0.071 kg/m3
same,mass density,358.15 K,984.697 ± 0.08 kg/m3
